Tests used:
ducksalad = assay: Test B flooded paddy test; format: in vivo, Heteranthera limosa; conditions: 1000 g ai/ha, visual rating, scale 0 to 100 (0 no effect, 100 complete control), 13 to 15 days
Outline: (§1)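 Postemergence plants were sprayed with formulated test chemicals at 2 to 18 cm height (1- to 4-leaf stage); paddy species were grown to the 2-leaf stage. After 13 to 15 days in a greenhouse, injury was rated visually against untreated controls on a 0–100 scale (0 = no effect, 100 = complete control).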

rice [1] = assay: Test B pre-/postemergence herbicide test; format: in vivo, Oryza sativa; conditions: preemergence, 125 g ai/ha; 0 to 100 scale, 0 is no effect, 100 is complete control
Outline: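 Species tested were Echinochloa crus-galli, Ipomoea coccinea, Xanthium strumarium and Oryza sativa, treated both before emergence and at the 1- to 4-leaf stage; rice and barnyardgrass were also tested under flooding at 2 leaves. Greenhouse incubation lasted 13–15 days before visual 0–100 scoring.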

pigweed = assay: Test B pre-/postemergence herbicide test; format: in vivo, Amaranthus retroflexus
Outline: (§2)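 Greenhouse pot assay with simultaneous preemergence (treated seed) and postemergence (2–18 cm seedlings) applications of surfactant-containing, non-phytotoxic solvent formulations. Response scored visually 13–15 days later on a 0–100 scale, 100 meaning complete control.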

barnyardgrass [2] = assay: Test B pre-/postemergence herbicide test; format: in vivo, Echinochloa crus-galli
Outline: (§3)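 Seeds were planted and treated preemergence with compounds formulated in a non-phytotoxic solvent mixture containing surfactant, while plants at the 1- to 4-leaf stage (2 to 18 cm) received postemergence sprays. Flooded paddy plants were grown to the 2-leaf stage. After 13 to 15 days in a greenhouse, injury was visually rated 0–100 against untreated controls.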

redroot pigweed = assay: Test A pre-/postemergence herbicide test; format: in vivo, Amaranthus retroflexus
Outline: (§4)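 Greenhouse injury scoring (0–100, complete control = 100) at approximately ten days follows simultaneous pre- and postemergence application. Soil received a directed spray after seeding; seedlings of 2–10 cm at the one- to two-leaf stage were sprayed to runoff.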

velvetleaf [3] = assay: Test A pre-/postemergence herbicide test; format: in vivo, Abutilon theophrasti
Outline: as §4

large crabgrass [4] = assay: Test B pre-/postemergence herbicide test; format: in vivo, Digitaria sanguinalis
Outline: as §2

large crabgrass [5] = assay: Test A pre-/postemergence herbicide test; format: in vivo, Digitaria sanguinalis
Outline: as §4

giant foxtail [6] = assay: Test A pre-/postemergence herbicide test; format: in vivo, Setaria faberi
Outline: as §4

lambsquarters = assay: Test B pre-/postemergence herbicide test; format: in vivo, Chenopodium album
Outline: as §2

morningglory [7] = assay: Test B pre-/postemergence herbicide test; format: in vivo, Ipomoea coccinea
Outline: as §3

blackgrass = assay: Test B postemergence herbicide test; format: in vivo, Alopecurus myosuroides; conditions: scale 0 (no effect) to 100 (complete control)
Outline: as §1

barnyardgrass [8] = assay: Test B flooded paddy test; format: in vivo, Echinochloa crus-galli; conditions: 1000 g ai/ha, visual rating, scale 0 to 100 (0 no effect, 100 complete control), 13 to 15 days
Outline: as §1

[9] = test system: small flower umbrella sedge; assay: Test B flooded paddy test; format: in vivo, Cyperus difformis; conditions: 1000 g ai/ha, visual rating, scale 0 to 100 (0 no effect, 100 complete control), 13 to 15 days
Outline: as §1

wheat = assay: Test B postemergence herbicide test; format: in vivo, Triticum aestivum; parameters: key to Wheat plant response rating: 0 = no effect, 100 = complete control; conditions: scale 0 (no effect) to 100 (complete control)
Outline: as §1

corn = assay: Test B pre-/postemergence herbicide test; format: in vivo, Zea mays
Outline: as §2

cocklebur = assay: Test B pre-/postemergence herbicide test; format: in vivo, Xanthium strumarium
Outline: as §3

giant foxtail [10] = assay: Test B pre-/postemergence herbicide test; format: in vivo, Setaria faberi
Outline: as §2

wild oat = assay: Test B postemergence herbicide test; format: in vivo, Avena fatua; conditions: scale 0 (no effect) to 100 (complete control)
Outline: as §1

Surinam grass = assay: Test B pre-/postemergence herbicide test; format: in vivo, Urochloa decumbens
Outline: as §2

morningglory [11] = assay: Test A pre-/postemergence herbicide test; format: in vivo, Ipomoea spp.
Outline: as §4

barnyardgrass [12] = assay: Test A pre-/postemergence herbicide test; format: in vivo, Echinochloa crus-galli
Outline: as §4

velvetleaf [13] = assay: Test B pre-/postemergence herbicide test; format: in vivo, Abutilon theophrasti
Outline: as §2

rice [14] = assay: Test B flooded paddy test; format: in vivo, Oryza sativa; conditions: 1000 g ai/ha, visual rating, scale 0 to 100 (0 no effect, 100 complete control), 13 to 15 days
Outline: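 Greenhouse test; postemergence application to plants at 1–4 leaves (2–18 cm); paddy species at 2 leaves; evaluated visually vs controls at 13–15 days; scale 0–100 (100 = complete control).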

[15] = Postemergence, 500 g ai/ha, visual rating after 13 to 15 days, scale 0 (no effect) to 100 (complete control)
[16] = postemergence, 125 g ai/ha, visual rating, scale 0 (no effect) to 100 (complete control)
[17] = preemergence, 125 g ai/ha, 0 to 100 scale, 0 is no effect, 100 is complete control
[18] = Preemergence, 500 g ai/ha, scale 0 to 100
[19] = Postemergence, 500 g ai/ha, 0 to 100 scale, 0 no effect, 100 complete control
[20] = Postemergence, 2000 g ai/ha, 0 to 100 scale, 0 no effect, 100 complete control
[21] = Preemergence, 500 g ai/ha, visual rating, 0 to 100 scale (0 no effect, 100 complete control)
[22] = Preemergence, 2000 g ai/ha, 0 to 100 scale, 0 no effect, 100 complete control
[23] = Postemergence, 500 g ai/ha, visual rating after 13 to 15 days
[24] = postemergence, 125 g ai/ha, visual rating

CCn1nc(C(C)(C)C)cc1C(=O)Nc1cccc(C(=O)OC)c1C [Compound 87]
50: Plant response rating, Foxtail, Giant (giant foxtail [6]; [20])
95: Pigweed plant response rating (redroot pigweed; [22]) | Crabgrass, Large plant response rating (large crabgrass [5]; [22])
65: Velvetleaf plant response rating (velvetleaf [3]; Preemergence, 2000 g ai/ha, visual rating, 0 to 100 scale (0 no effect, 100 complete control))
60: Pigweed plant response rating (redroot pigweed; [21]) | Plant response rating, Crabgrass, Large (large crabgrass [4]; [15]) | Plant response rating, Crabgrass, Large (large crabgrass [5]; [20])
70: Barnyardgrass plant response rating (barnyardgrass [2]; [18]) | Plant response rating, Lambsquarters (lambsquarters; [17])
10: Pigweed plant response rating (redroot pigweed; [19]) | Velvetleaf plant response rating (velvetleaf [3]; [19]) | Plant response rating, Foxtail, Giant (giant foxtail [10]; [17]) | Rice plant response rating (rice [14])
15: Morningglory plant response rating (morningglory [11]; [19]) | Morningglory plant response rating (morningglory [11]; [21]) | Morningglory plant response rating (morningglory [11]; [22]) | Barnyardgrass plant response rating (barnyardgrass [12]; [19])
55: Plant response rating, Barnyardgrass (barnyardgrass [12]; [20]) | Barnyardgrass plant response rating (barnyardgrass [12]; [21])
100: Crabgrass, Large plant response rating (large crabgrass [4]; [18])
90: Plant response rating, Crabgrass, Large (large crabgrass [4]; [17]) | Crabgrass, Large plant response rating (large crabgrass [5]; [21]) | Foxtail, Giant plant response rating (giant foxtail [6]; [22]) | Barnyardgrass plant response rating (barnyardgrass [12]; [22])
20: Ducksalad plant response rating (ducksalad) | Plant response rating, Barnyardgrass (barnyardgrass [2]; [17]) | Crabgrass, Large plant response rating (large crabgrass [5]; [19]) | Foxtail, Giant plant response rating (giant foxtail [6]; [19]) | Barnyardgrass plant response rating (barnyardgrass [8]) | Plant response rating, Morningglory (morningglory [11]; [20])
40: Plant response rating, Pigweed (pigweed; [17])
25: Plant response rating, Velvetleaf (velvetleaf [3]; [20]) | Velvetleaf plant response rating (velvetleaf [3]; [21])
80: Sedge, Umbrella plant response rating [9] | Foxtail, Giant plant response rating (giant foxtail [10]; [18])
35: Plant response rating, Pigweed (redroot pigweed; [20]) | Foxtail, Giant plant response rating (giant foxtail [6]; [21])
0: Plant response rating, Rice (rice [1]) | Plant response rating, Pigweed (pigweed; [15]) | Pigweed plant response rating (pigweed; [16]) | Plant response rating, Barnyardgrass (barnyardgrass [2]; [15]) | Barnyardgrass plant response rating (barnyardgrass [2]; [16]) | Crabgrass, Large plant response rating (large crabgrass [4]; [16]) | Plant response rating, Lambsquarters (lambsquarters; [15]) | Lambsquarters plant response rating (lambsquarters; [16]) | Plant response rating, Morningglory (morningglory [7]; [15]) | Morningglory plant response rating (morningglory [7]; [16]) | Plant response rating, Morningglory (morningglory [7]; [17]) | Plant response rating, Blackgrass (blackgrass; [23]) | Blackgrass plant response rating (blackgrass; [24]) | Plant response rating, Wheat (wheat; [23]) | Wheat plant response rating (wheat; [24]) | Plant response rating, Corn (corn; [15]) | Corn plant response rating (corn; [18]) | Corn plant response rating (corn; [16]) | Plant response rating, Corn (corn; [17]) | Plant response rating, Cocklebur (cocklebur; [15]) | Cocklebur plant response rating (cocklebur; [18]) | Cocklebur plant response rating (cocklebur; [16]) | Plant response rating, Cocklebur (cocklebur; [17]) | Plant response rating, Foxtail, Giant (giant foxtail [10]; [15]) | Foxtail, Giant plant response rating (giant foxtail [10]; [16]) | Plant response rating, Oat, Wild (wild oat; [23]) | Oat, Wild plant response rating (wild oat; [24]) | Plant response rating, Surinam Grass (Surinam grass; [15]) | Surinam Grass plant response rating (Surinam grass; [16]) | Plant response rating, Surinam Grass (Surinam grass; [17]) | Plant response rating, Velvetleaf (velvetleaf [13]; [15]) | Velvetleaf plant response rating (velvetleaf [13]; [16]) | Plant response rating, Velvetleaf (velvetleaf [13]; [17])

Source: patent US20060069132A1, “Azolecarboxamide herbicides” (priority 2004, published 2006)
